Results from patent US7732374B2, “Fungicidal mixtures based on prothioconazole and an insecticide” (priority 2002, dated 2010).

Tested on: Sphaerotheca fuliginea
Assay: Protective activity against mildew of cucumbers caused by Sphaerotheca fuliginea
Type: in vivo
Conditions: inoculated 20 hours after spraying, evaluated after 7 days
Protocol: Evaluation was carried out by determining the infected leaf areas in percent. These percentages were converted into efficacies. The efficacy (W) was calculated as follows using Abbot's formula:
[formula] • α corresponds to the fungal infection of the treated plants in % and • β corresponds to the fungal infection of the untreated (control) plants in %
An efficacy of 0 means that the infection level of the treated plants corresponds to that of the untreated control plants; an efficacy of 100 means that the treated plants were not infected.
20 hours after the spray coating had dried on, the plants were inoculated with an aqueous spore suspension of mildew of cucumbers (Sphaerotheca fuliginea). The plants were then cultivated in a greenhouse at 20-24° C. and 60-80% relative atmospheric humidity for 7 days. The extent of mildew development was then determined visually in % infection of the cotyledon area.
The visually determined values for the percentage of infected leaf areas were converted into efficacies in % of the untreated control. An efficacy of 0 means the same degree of infection as the untreated control, an efficacy of 100 means 0% infection.

[1] = 0.015 ppm active compound in the spray liquor
[2] = 0.06 ppm active compound in the spray liquor
[3] = 0.25 ppm active compound in the spray liquor
[4] = 1 ppm active compound in the spray liquor

OC(Cc1ccccc1Cl)(Cn1nc[nH]c1=S)C1(Cl)CC1 (stereo not drawn) [Compound I, 2-[2-(1-chlorocyclopropyl)-3-(2-chlorophenyl)-2-hydroxypropyl]-2,4-dihydro-[1,2,4]-triazole-3-thione]
Efficacy in % of the untreated control [1]: 0%
Efficacy in % of the untreated control [2]: 0%
Efficacy in % of the untreated control [3]: 5%

N#Cc1nn(-c2c(Cl)cc(C(F)(F)F)cc2Cl)c(N)c1[S+]([O-])C(F)(F)F (stereo not drawn) [Compound II, fipronil]
Efficacy in % of the untreated control [1]: 0%
Efficacy in % of the untreated control [2]: 0%
Efficacy in % of the untreated control [3]: 0%
Efficacy in % of the untreated control [4]: 0%

CCOP(=S)(OCC)Oc1nc(Cl)c(Cl)cc1Cl [Compound III, chlorpyrifos]
Efficacy in % of the untreated control [1]: 0%
Efficacy in % of the untreated control [2]: 0%
Efficacy in % of the untreated control [3]: 0%

CN1COCN(Cc2cnc(Cl)s2)/C1=N\[N+](=O)[O-] [Compound IV, thiamethoxam]
Efficacy in % of the untreated control [1]: 0%
Efficacy in % of the untreated control [2]: 0%
Efficacy in % of the untreated control [3]: 0%
Efficacy in % of the untreated control [4]: 0%
Efficacy in % of the untreated control (4 ppm active compound in the spray liquor): 0%
